According to patent US7915050B2, “Regulatory genes for plant differentiation and growth, and use of the same” (National University Corporation Nagoya University, priority 2005, dated 2011):

Columns and labels:
GID1 = target: T1, GID1 (Oryza sativa subsp. japonica, UniProt Q6L545); assay: Competition of various GAs in the binding of the 3H-GA4 derivative to GID1 protein; design: species or system rice
T1 construct: GST (tag of vector pGEX-4T) (N); made in house
Protocol: In the gibberellin-binding assay, [1,2,16,17-^3H4]16,17-dihydro-GA4 was used as a labeled GA4. In vitro GA-binding assays were carried out using previous methods with some modifications (Nakajima, M. et al., Biochem. Biophys. Res. Comm. 241, 782-786 (1997)). The purified recombinant GID1 protein (400 pmol) was dissolved in 300 μl of binding buffer [20 mM Tris-HCl (pH 7.6), 5 mM 2-mercaptoethanol, and 0.1 M NaCl], and incubated with 100 μl of ^3H4-16,17-dihydroGA4 (6 pmol) for two hours at 25° C., either in the absence of non-labeled GA4 (total binding) or in the presence of 833-fold excess non-labeled GA4 (total non-specific binding). Then, 0.1 ml of the reaction mixture was loaded onto a NAP-5 column (Amersham Biosciences, Piscataway, N.J.). The eluate of the binding buffer (0.6 ml) was discarded, the subsequent eluate (0.2 ml) was collected, and the radioactivity was measured. The specific binding activity, reflecting the number of displaceable GA binding sites, was calculated by subtracting the amount of nonspecific binding from the amount of total binding. The same as above can also be carried out for other GAs.
Thus, it was postulated that, like GID2, GID1 is involved in the degradation of SLR1, or that GID1 functions upstream of SLR1 in GA signaling. […] Based on this phenotypic characteristic of gid1, it was predicted that GID1 was involved in GA perception. To verify this possibility, the interactions between GID1 and radioisotope-labeled GA was directly examined using non-equilibrium gel filtration (Nakajima, M. et al., Biochem. Biophys. Res. Comm. 241, 782-786 (1997)). […] Next, ligand specificity of GID1 was tested by using competition between the tritiated GA4 derivative and various GAs. The concentration of each GA that is required for a 50% inhibition (IC50) of the binding of the tritiated GA4 derivative to GID1 is shown in Table 1. […] The IC50 value for each of these GAs was well consistent with their physiological activity.

[1] = target: T2, AtGID1c in the presence of GAI (Arabidopsis thaliana, UniProt Q940G6); assay: Scatchard analysis of AtGID1c-GA binding in the presence of GAI
T2 construct: made in house; host or cells: E. coli (stated for AtGID1)
T2 sequence (Q940G6 1-344): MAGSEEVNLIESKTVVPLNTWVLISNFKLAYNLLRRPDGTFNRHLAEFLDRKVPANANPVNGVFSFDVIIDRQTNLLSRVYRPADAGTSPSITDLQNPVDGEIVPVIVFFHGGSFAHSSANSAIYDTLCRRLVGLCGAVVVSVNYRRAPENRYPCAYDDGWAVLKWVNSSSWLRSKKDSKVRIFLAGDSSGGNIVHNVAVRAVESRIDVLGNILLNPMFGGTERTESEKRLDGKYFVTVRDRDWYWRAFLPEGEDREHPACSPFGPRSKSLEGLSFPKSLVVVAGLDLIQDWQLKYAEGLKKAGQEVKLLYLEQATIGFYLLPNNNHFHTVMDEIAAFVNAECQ
T2 sequence (Q9LQT8 1-533 partner): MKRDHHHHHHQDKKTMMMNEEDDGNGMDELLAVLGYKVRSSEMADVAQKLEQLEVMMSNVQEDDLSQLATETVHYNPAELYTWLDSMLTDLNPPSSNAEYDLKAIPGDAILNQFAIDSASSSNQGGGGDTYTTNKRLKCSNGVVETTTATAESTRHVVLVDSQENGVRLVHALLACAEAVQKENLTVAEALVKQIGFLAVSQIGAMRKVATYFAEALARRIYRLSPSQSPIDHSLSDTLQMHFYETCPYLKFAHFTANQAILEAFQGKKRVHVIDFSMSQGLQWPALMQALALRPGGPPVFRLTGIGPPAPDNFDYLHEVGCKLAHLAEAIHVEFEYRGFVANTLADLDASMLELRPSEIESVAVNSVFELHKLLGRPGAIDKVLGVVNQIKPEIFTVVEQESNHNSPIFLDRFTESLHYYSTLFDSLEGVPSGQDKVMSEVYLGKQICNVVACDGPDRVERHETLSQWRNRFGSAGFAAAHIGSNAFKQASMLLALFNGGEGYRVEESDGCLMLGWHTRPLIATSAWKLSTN
Protocol: Panel A) depicts AtGID1-AtDELLA interaction in the presence of GA in two types of yeast hybrid (Y2H) assays. Each AtGID1 was used as a bait while AtDELLA was a prey. GA4 (10^−5 M) was added to the medium. The bars indicates β-galactosidase activity when o-nitrophenol-β-D-galactopyranoside was used as a substrate (Assay B). The growth of each transformant in the defined medium for 2 days (Assay A) is shown beneath of each bar graph. The experiment was carried out in quadruplicate. The SD value shown in the figure was determined from three measurements. Panel B) depicts the dose response in AtGID1-RGA interaction in Assay B of Y2H. GA4 (10^−5 to 10^−9 M) was added to the medium. The experiment was conducted in […]. The SD value shown in the figure was determined from three measurements. Panel C) depicts the results of an evaluation of the in vitro GA-binding potency of AtGID1 using AtDELLA. […] GAI (G) or RGA (R) was added, and then the GA-binding activity in each reaction mixture was measured according to the standard method. […] The SD value was determined from three measurements. […]
Next, whether AtDELLAs exert some kind of influence on the GA-binding activity of AtGID1s was examined in vitro. After labeled 16,17-dihydro-GA4 and AtGID1s were combined, AtDELLAs were added to the solutions, and the GA-binding activity was measured. […]

T1 sequence (Q6L545 whole entry): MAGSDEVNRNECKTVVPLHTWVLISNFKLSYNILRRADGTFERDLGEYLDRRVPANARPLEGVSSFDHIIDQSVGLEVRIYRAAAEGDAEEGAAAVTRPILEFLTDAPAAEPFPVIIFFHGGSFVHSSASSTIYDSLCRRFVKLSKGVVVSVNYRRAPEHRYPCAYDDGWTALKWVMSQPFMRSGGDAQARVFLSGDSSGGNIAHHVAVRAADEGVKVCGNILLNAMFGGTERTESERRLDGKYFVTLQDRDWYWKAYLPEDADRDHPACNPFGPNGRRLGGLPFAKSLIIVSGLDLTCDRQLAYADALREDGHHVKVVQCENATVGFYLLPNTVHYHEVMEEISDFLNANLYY

Q: With CC1C[C@]23C[C@H]1CCC2[C@]12CC[C@H](O)[C@](C)(C(=O)O1)[C@H]2[C@@H]3C(=O)O (stereo partly shown) [H2-GA4, 16,17-dihydro-GA4] as the compound, how does the “affinity of recombinant GID1 for the GA (in words)” value (GID1) read?
A: high affinity

Q: What about the IC50 (GID1; competition with tritiated GA4 derivative for binding to recombinant GID1, read-out: IC50 (concentration required for 50% inhibition)) of the same compound?
A: 1 µM

Q: What about the “Rel % (relative value)” value (GID1; relative competition, GA4 given as 100) of the same compound?
A: (20) %

Q: And the Kd [1]?
A: 0.046 µM
